The values that follow come from EP0483271B1, “PEPTIDES CONTAINING DIAMINO-GLYCOLS AS TRANSITION-STATE MIMICS” (THE UPJOHN COMPANY, priority 1989, dated 1993).

One may read the inhibition as the share of the control response that was lost under treatment. Low values mean a weak effect, high ones a strong effect.

For the test, the system named is renin. The experiment in a line: renin inhibitory activity, in vitro test (as described in US-A-4880781 and EP-A-0 173 481, pages 103-105). The class given is biochemical. The following applies: at 10⁻⁸M; printed under the heading IC₅₀(M). As to the method:
In the examples below, the renin inhibitory activity of the compounds of the present invention (IC₅₀'s) are determined using the in vitro test described in US-A-4880 781 (U.S. patent application, Serial No. 07/147,073, filed 20 January 1988), and in EP-A-0 173 481, published 5 March 1986, pages 103-105, which are hereby incorporarted by reference.

Molecules are shown by their SMILES. Where a name gives a salt, the structure may show the parent alone.

With `COc1ccc(C[C@H](NC(=O)[C@@H]2CCCN2C(=O)CC[C@H](N)C(=O)O)C(=O)N[C@@H](Cc2c[nH]cn2)C(=O)N[C@@H](CC2CCCCC2)[C@@H](O)[C@@H](O)CC(C)(C)N)cc1` [Example 7, L-Arabino-heptitol6-amino-1,2,5,6,7-pentadeoxy-1-cyclohexyl-2-[[N-[N-(1-L-γ-glutamyl-L-prolyl)-O-methyl-L-tyrosyl]-L-histidyl]-amino]-6-methyl-, tris(trisluoroacetate) salt], the inhibition worked out at 34%.
